The values below come from PMC8037669, “Discovery of Novel Sultone Fused Berberine Derivatives as Promising Tdp1 Inhibitors” (Molecules, 2021).

Several values for one entry are separate records, joined by “and”; a condition that tells them apart may be missing. Equal values may be shown once. Entries after “also recorded” stand apart in the source; their conditions may differ. Read-outs that look alike come from different tables or passages of the source. Bounds are passed on as bounds.

Data set [1] is described as follows: Cytotoxicity, EZ4U Cell Proliferation and Cytotoxicity Assay. The note with it: human. It counts as cell-based, human. The method, then:
(§1) All compounds have no intrinsic toxicity in the concentration range up to 100 μM (Figure 8) in HeLa cells, with the exception of 16a and berberine, which are toxic at concentrations above 20 μM. 16a is slightly toxic (CC50 ~ 100 μM) and differs from non-toxic 10a in the presence of a double bond in the sultone cycle. The original berberine 1 is toxic to HeLa cells with a cytotoxic concentration (CC50) of 20 μM, which is consistent with the literature data.
(§2) Cytotoxicity of the compounds to HeLa (human cervical cancer) cell line was examined using the EZ4U Cell Proliferation and Cytotoxicity Assay (Biomedica, Vienna, Austria), according to the manufacturer’s protocols. The cells were grown in Iscove’s modified Dulbecco’s medium (IMDM) with 40 μg/mL gentamicin, 50 IU/mL penicillin, 50 μg/mL streptomycin (MP Biomedicals, Waltham, MA, USA), and 10% of fetal bovine serum (Biolot, Saint Petersburg, Russia) in a 5% CO2 atmosphere. After the formation of a 30–50%-monolayer, the tested compounds were added to the medium. The volume of the added reagents was 1/100 of the total volume of the culture medium, and the amount of DMSO was 1% of the final volume. Control cells were grown in the presence of 1% DMSO. The cell culture was monitored for 3 days.

The target of data set [2] is T1, tyrosyl-DNA phosphodiesterase 1 (Tdp1) (Homo sapiens, UniProt Q9NUW8).
T1 construct: Purified Tdp1 (1.5 nM) triggered the reaction
T1 sequence (Q9NUW8 whole entry): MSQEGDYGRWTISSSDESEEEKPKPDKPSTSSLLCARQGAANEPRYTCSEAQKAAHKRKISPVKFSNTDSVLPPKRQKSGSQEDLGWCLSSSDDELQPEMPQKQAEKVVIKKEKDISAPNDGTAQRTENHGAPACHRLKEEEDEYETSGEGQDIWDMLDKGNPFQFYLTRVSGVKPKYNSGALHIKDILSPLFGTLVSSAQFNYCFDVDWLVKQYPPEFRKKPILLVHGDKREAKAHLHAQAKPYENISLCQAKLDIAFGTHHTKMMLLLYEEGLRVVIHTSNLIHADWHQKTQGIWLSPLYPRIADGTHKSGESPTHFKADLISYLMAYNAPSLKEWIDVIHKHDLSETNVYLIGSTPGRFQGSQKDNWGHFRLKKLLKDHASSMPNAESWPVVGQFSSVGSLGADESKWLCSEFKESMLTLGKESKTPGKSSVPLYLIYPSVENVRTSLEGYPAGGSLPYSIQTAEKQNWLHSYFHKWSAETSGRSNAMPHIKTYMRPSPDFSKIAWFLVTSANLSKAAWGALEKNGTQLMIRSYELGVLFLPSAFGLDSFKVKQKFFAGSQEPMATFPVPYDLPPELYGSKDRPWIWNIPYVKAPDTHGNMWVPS
The experiment in a line: Tdp1 activity, fluorescent oligonucleotide biosensor (FAM/BHQ1) assay. It counts as biochemical. The conditions noted are these: purified Tdp1 1.5 nM, 50 nM biosensor; read-out: Tdp1 inhibiting activity IC50. The method, then: In this work, newly synthesized sultones were tested for their inhibition of Tdp1. Tdp1 activity was measured using a fluorescent biosensor as previously described. The biosensor is an oligonucleotide with a fluorophore (FAM) at the 5′-end and a fluorescence quencher (BHQ1) at the 3′-end. Due to the activity of the enzyme, the quencher is removed, which leads to an increase in the fluorescence intensity. Inhibitors prevent the removal of the quencher, thus reducing the fluorescence intensity.
Tdp1 activity was detected, as described in the work in Reference, and consists of fluorescence intensity measurement in a reaction of quencher removal from a fluorophore quencher–coupled DNA oligonucleotide catalyzed by Tdp1. The reaction was carried out at different concentrations of inhibitors (the control samples contained 1% of DMSO). The reaction mixtures contained Tdp1 buffer (50 mM Tris-HCl pH 8.0, 50 mM NaCl, and 7 mM β-mercaptoethanol), 50 nM biosensor, and an inhibitor being tested. Purified Tdp1 (1.5 nM) triggered the reaction. The biosensor (5′-[FAM] AAC GTC AGGGTC TTC C [BHQ]-3′) was synthesized in the Laboratory of Biomedical Chemistry at the Institute of Chemical Biology and Fundamental Medicine (Novosibirsk, Russia).
The reactions were incubated on a POLARstar OPTIMA fluorimeter (BMG LABTECH, GmbH, Ortenberg, Germany) to measure fluorescence every 55 s (ex. 485/em. 520 nm) during the linear phase (here, data from minute 0 to minute 8). The values of IC50 were determined using a six-point concentration response curve in a minimum of three independent experiments and were calculated using MARS Data Analysis 2.0 (BMG LABTECH, Ortenberg, Germany).

The test system of data set [3] is HeLa cells. The data set can be described thus: Sensitization of cells to topotecan cytotoxicity by Tdp1 inhibitors. It counts as cell-based, human. The note with it: inhibitor at 20 μM, varied topotecan concentrations; Mann-Whitney U-test, p = 0.05. The method, then:
In this work, we also tested the ability of the berberrubine sultones to sensitize cells to the action of topotecan. For this, we chose a non-toxic concentration of Tdp1 inhibitors at 20 μM and varied the concentrations of topotecan.
as §2

Data set [4] deals with HeLa cells. The data set can be described thus: Cytotoxicity, EZ4U Cell Proliferation and Cytotoxicity Assay. Type of data set: cell-based, human. Here is the method:
as §1, §2

Data set [5] deals with T1, tyrosyl-DNA phosphodiesterase 1 (Tdp1). The note with it: previous work of the group; read-out: Tdp1 IC50 of previously synthesized berberine derivatives; cited from earlier work.

In the case of `CCC1C2c3c(c(Br)cc(OC)c3OS1(=O)=O)C=C1c3cc4c(cc3CCN12)OCO4` (stereo not drawn) [18c, 17-Bromo-23-ethyl-19-methoxy-8,10,21-trioxa-22λ⁶-thia-2-azahexacyclo[14.7.1.0^2,¹⁴.0⁵,¹^3.0⁷,¹¹.0^2⁰,^2⁴]tetracosa-5,7(11),12,14,16,18,20(24)-heptaene-22,22-dione], the half-maximal cytotoxic concentration (CC50) at 3 days in data set [1] was > 100000 nM. The 50% inhibitory concentration (IC50) in data set [2] was found to be 560 ± 20 nM. The “sensitizing effect on topotecan cytotoxicity” value in data set [3] was “most pronounced and statistically significant; also recorded: enhances the cytotoxic effect of topotecan”.

As for `COc1ccc2cc3[n+](cc2c1OC)CCc1cc2c(cc1-3)OCO2` [berberine 1, berberine], the CC50 at 3 days in data set [1] (HeLa cells, EZ4U test, 3 days, read-out: CC50 HeLa) came out at 20000 nM. For the same compound, the “concentration above which toxic to HeLa cells” value in data set [4] (HeLa cells) is recorded as “above 20 μM”.

Turning to `CCC1C2c3c(ccc(OC)c3OS1(=O)=O)C=C1c3cc4c(cc3CCN12)OCO4` (stereo not drawn) [10c, 23-Ethyl-19-methoxy-8,10,21-trioxa-22λ⁶-thia-2-azahexacyclo[14.7.1.0^2,¹⁴.0⁵,¹^3.0⁷,¹¹.0^2⁰,^2⁴]tetracosa-5,7(11),12,14,16,18,20(24)-heptaene-22,22-dione], the CC50 at 3 days in data set [1] is > 100000 nM. Besides, the IC50 in data set [2] is 5500 ± 100 nM.

Turning to `COc1cc(Br)c2c3c1OS(=O)(=O)C(C)C3N1CCc3cc4c(cc3C1=C2)OCO4` (stereo not drawn) [18b, 17-Bromo-19-methoxy-23-methyl-8,10,21-trioxa-22λ⁶-thia-2-azahexacyclo[14.7.1.0^2,¹⁴.0⁵,¹^3.0⁷,¹¹.0^2⁰,^2⁴]tetracosa-5,7(11),12,14,16,18,20(24)-heptaene-22,22-dione], the CC50 at 3 days in data set [1] is > 100000 nM. Further, the IC50 in data set [2] is 1130 ± 200 nM.

For the compound `CCCC1C2c3c(c(Br)cc(OC)c3OS1(=O)=O)C=C1c3cc4c(cc3CCN12)OCO4` (stereo not drawn) [18d, 17-Bromo-19-methoxy-23-propyl-8,10,21-trioxa-22λ⁶-thia-2-azahexacyclo[14.7.1.0^2,¹⁴.0⁵,¹^3.0⁷,¹¹.0^2⁰,^2⁴]tetracosa-5,7(11),12,14,16,18,20(24)-heptaene-22,22-dione], the CC50 at 3 days in data set [1] is > 100000 nM. Besides, the half-inhibitory concentration (IC50) in data set [2] stood at 780 ± 30 nM.

Consider `COc1ccc2c3c1OS(=O)(=O)C=C3N1CCc3cc4c(cc3C1=C2)OCO4` [16a, 19-Methoxy-8,10,21-trioxa-22λ⁶-thia-2-azahexacyclo[14.7.1.0^2,¹⁴.0⁵,¹^3.0⁷,¹¹.0^2⁰,^2⁴]tetracosa-1(23),5,7(11),12,14,16,18,20(24)-octaene-22,22-dione], for which, in data set [1], the CC50 at 3 days is ~100000 nM. Further, the “concentration above which toxic to HeLa cells” value in data set [4] (human, 3 days) is recorded as “above 20 μM”. Besides, in data set [2], the 50% inhibitory concentration (IC50) came out at 2500 ± 400 nM.

Consider `COc1ccc2c(c1OS(C)(=O)=O)CN1CCc3cc4c(cc3C1C2)OCO4` (stereo not drawn) [21a], for which the IC50 in data set [5] was > 15000 nM.

`COc1ccc2c3c1OS(=O)(=O)C(C)C3N1CCc3cc4c(cc3C1=C2)OCO4` (stereo not drawn) [10b, 19-Methoxy-23-methyl-8,10,21-trioxa-22λ⁶-thia-2-azahexacyclo[14.7.1.0^2,¹⁴.0⁵,¹^3.0⁷,¹¹.0^2⁰,^2⁴]tetracosa-5,7(11),12,14,16,18,20(24)-heptaene-22,22-dione]: in data set [1], the CC50 at 3 days was > 100000 nM. The concentration for half-maximal inhibition (IC50) in data set [2] came to 2130 ± 160 nM.

Regarding `COc1cc(Br)c2c3c1OS(=O)(=O)CC3N1CCc3cc4c(cc3C1=C2)OCO4` (stereo not drawn) [18a, 17-Bromo-19-methoxy-8,10,21-trioxa-22λ⁶-thia-2-azahexacyclo[14.7.1.0^2,¹⁴.0⁵,¹^3.0⁷,¹¹.0^2⁰,^2⁴]tetracosa-5,7(11),12,14,16,18,20(24)-heptaene-22,22-dione], the CC50 at 3 days in data set [1] is > 100000 nM. The IC50 in data set [2] is 925 nM and 920 nM.

For `CCS(=O)(=O)Oc1c(OC)ccc2c1CN1CCc3cc4c(cc3C1C2)OCO4` (stereo not drawn) [21b], the concentration for half-maximal inhibition (IC50) in data set [5] was > 15000 nM.

As for `COc1ccc2c3c1OS(=O)(=O)CC3N1CCc3cc4c(cc3C1=C2)OCO4` (stereo not drawn) [10a, 19-Methoxy-8,10,21-trioxa-22λ⁶-thia-2-azahexacyclo[14.7.1.0^2,¹⁴.0⁵,¹^3.0⁷,¹¹.0^2⁰,^2⁴]tetracosa-5,7(11),12,14,16,18,20(24)-heptaene-22,22-dione], the cytotoxic concentration (CC50) at 3 days in data set [1] was > 100000 nM. In addition, the half-maximal inhibitory concentration (IC50) in data set [2] was 1530 ± 180 nM.

In the case of `CCCC1C2c3c(ccc(OC)c3OS1(=O)=O)C=C1c3cc4c(cc3CCN12)OCO4` (stereo not drawn) [10d, 19-Methoxy-23-propyl-8,10,21-trioxa-22λ⁶-thia-2-azahexacyclo[14.7.1.0^2,¹⁴.0⁵,¹^3.0⁷,¹¹.0^2⁰,^2⁴]tetracosa-5,7(11),12,14,16,18,20(24)-heptaene-22,22-dione], in data set [1], the CC50 at 3 days is > 100000 nM. Also, the IC50 in data set [2] is 1120 ± 180 nM.
